Legend:
[1] = tested on: Caspase-3 and PARP in osteosarcoma cell line (U2OS); assay: Western Blotting Test, osteosarcoma cell line (U2OS); format: cell-based; settings: U2OS cells, 10 μM, FIG. 14
Experimental: (§1) After a certain period of time, the degree of cell extinction is evaluated by examining the degree of expression of extinction and damage of a specific factor by using Western Blotting Test and the result is shown in FIG. 14.

[2] = in ethanol; cited from earlier work
[3] = tested on: breast epithelial cell line; assay: Cytomorphology Test (microscopic examination of cultured cells); format: cell-based; settings: cultured about 72 hours, FIG. 12
Experimental: (§2) In the presence of a test compound or a comparative compound, a cell line is cultured for a certain period of time (about 72 hours) and then a cytotoxicity test is conducted. As a control group, a blank test is conducted in the same manner as above without adding any compound including the test compound and the comparative compound.

[4] = tested on: breast epithelial cell; assay: Trypan Blue Exclusion Test; format: cell-based; settings: both test concentrations 1 μM and 10 μM, FIG. 13
Experimental: as §2

[5] = tested on: Caspase-3 and PARP in breast epithelial cell line; assay: Western Blotting Test, breast epithelial cell line; format: cell-based; settings: breast epithelial cell line, 1, 10 and 100 μM, FIG. 14
Experimental: as §1

COc1cc([C@@H]2c3cc4c(cc3[C@@H](O[C@@H]3O[C@@H]5CO[C@@H](C)O[C@H]5[C@H](O)[C@H]3O)[C@H]3COC(=O)[C@H]23)OCO4)cc(OC)c1O [Etoposide]
Western blot peaks from cell extinction and damage (Caspase-3, PARP) [1]: significantly remarkable peak at 17 kDa, 19 kDa and 89 kDa positions

CCN=c1cc2oc3cc(NCC)c(C)cc3c(-c3ccccc3C(=O)OCC)c-2cc1C.Cl [rhodamin 6G]
quantum yield of reference standard [2]: 0.95

CC(=O)/C=C/c1ccc2cc(O)cc(O)c2c1 [Example 1, (E)-4-(6,8-dihydroxynaphthalen-2-yl)but-3-en-2-one]
cytomorphology and number change of the cultured cell vs control group [3]: no significant difference from the control group
number of cells alive (trypan blue) vs control group [4]: number of cells similar to that of the control group
Western blot peaks from cell extinction and damage (Caspase-3, PARP) [5]: no peak at 17 kDa, 19 kDa and 89 kDa positions

Reference: US10787607B2, “High efficiency fluorescent compound and method for preparing the same” (SNU R&DB FOUNDATION, priority 2011, dated 2020)
